Laboratory results as given in ChEMBL document CHEMBL1152321, “Recent advances in the chemistry and biology of new generation taxoids” (J Nat Prod, 2009).

Legend:
[1] = Cytotoxicity against P-glycoprotein deficient wild type human LCC-6 cells after 72 hrs; assay type: functional, cell-based; details: LCC-6, 72 h
[2] = Cytotoxicity against human LCC-6 cells expressing P-glycoprotein after 72 hrs; assay type: functional, cell-based; details: LCC-6, 72 h
[3] = Resistance factor, ratio of IC50 for human LCC-6 cells expressing P-glycoprotein to IC50 for P-glycoprotein deficient wild type human LCC-6 cells; assay type: functional; design: reference not given here
[4] = test system: MCF7; assay: Cytotoxicity against P-glycoprotein deficient wild type human MCF7 cells after 72 hrs; assay type: functional, cell-based; details: MCF7, 72 h
[5] = test system: MCF7; assay: Cytotoxicity against human MCF7 cells expressing P-glycoprotein after 72 hrs; assay type: functional, cell-based; details: MCF7, 72 h
[6] = test system: MCF7; assay: Resistance factor, ratio of IC50 for human MCF7 cells expressing P-glycoprotein to IC50 for P-glycoprotein deficient wild type human MCF7 cells; assay type: functional
[7] = test system: NCI-H460; assay: Cytotoxicity against human H460 cells after 72 hrs; assay type: functional, cell-based; details: NCI-H460, 72 h
[8] = test system: HT-29; assay: Cytotoxicity against human HT-29 cells after 72 hrs; assay type: functional, cell-based; details: HT-29, 72 h

SMILES | IC50 [1] [nM] | IC50 [2] [nM] | Ratio [3] | IC50 [4] [nM] | IC50 [5] [nM] | Ratio [6] | IC50 [7] [nM] | IC50 [8] [nM]
COC(=O)O[C@H]1C(=O)[C@@]2(C)[C@H]([C@H](OC(=O)c3cccc(F)c3)[C@]3(O)C[C@H](OC(=O)[C@H](O)[C@@H](NC(=O)OC(C)(C)C)C(F)(F)F)C(C)=C1C3(C)C)[C@]1(OC(C)=O)CO[C@@H]1C[C@@H]2O | 0.39 | 5.81 | 15 | 0.31 | 4.88 | 16 | 0.61 | 0.85
COC(=O)O[C@H]1C(=O)[C@@]2(C)[C@H]([C@H](OC(=O)c3cccc(OC)c3)[C@]3(O)C[C@H](OC(=O)[C@H](O)[C@@H](NC(=O)OC(C)(C)C)C(F)(F)F)C(C)=C1C3(C)C)[C@]1(OC(C)=O)CO[C@@H]1C[C@@H]2O | 0.27 | 3.99 | 15 | 0.17 | 2.88 | 17 | 0.38 | 0.53
COC(=O)O[C@H]1C(=O)[C@@]2(C)[C@H]([C@H](OC(=O)c3cccc(N=[N+]=[N-])c3)[C@]3(O)C[C@H](OC(=O)[C@H](O)[C@@H](NC(=O)OC(C)(C)C)C(F)F)C(C)=C1C3(C)C)[C@]1(OC(C)=O)CO[C@@H]1C[C@@H]2O | 0.26 | 2.06 | 7.9 | 1.69 | 2.56 | 1.5 | 0.23 | 0.36
CC(=O)O[C@@]12CO[C@@H]1C[C@H](O)[C@@]1(C)C(=O)[C@H](OC(=O)N(C)C)C3=C(C)[C@@H](OC(=O)[C@H](O)[C@@H](NC(=O)OC(C)(C)C)C(F)F)C[C@@](O)([C@@H](OC(=O)c4cccc(F)c4)[C@H]21)C3(C)C | 0.69 | 10.6 | 15 | 0.52 | 8.13 | 16 | 0.2 | 0.35
COC(=O)O[C@H]1C(=O)[C@@]2(C)[C@H]([C@H](OC(=O)c3cccc(OC)c3)[C@]3(O)C[C@H](OC(=O)[C@H](O)[C@@H](NC(=O)OC(C)(C)C)C(F)F)C(C)=C1C3(C)C)[C@]1(OC(C)=O)CO[C@@H]1C[C@@H]2O | 1.03 | 10.2 | 9.9 | 0.81 | 6.59 | 8.1 | 0.3 | 0.44
CC(=O)O[C@@]12CO[C@@H]1C[C@H](O)[C@@]1(C)C(=O)[C@H](OC(=O)N(C)C)C3=C(C)[C@@H](OC(=O)[C@H](O)[C@@H](NC(=O)OC(C)(C)C)C(F)(F)F)C[C@@](O)([C@@H](OC(=O)c4cccc(Cl)c4)[C@H]21)C3(C)C | 0.27 | 2.55 | 9.4 | 0.12 | 1.02 | 8.5 | 0.42 | 0.45
CCC(=O)O[C@H]1C(=O)[C@@]2(C)[C@H]([C@H](OC(=O)c3cccc(N=[N+]=[N-])c3)[C@]3(O)C[C@H](OC(=O)[C@H](O)[C@@H](NC(=O)OC(C)(C)C)C(F)F)C(C)=C1C3(C)C)[C@]1(OC(C)=O)CO[C@@H]1C[C@@H]2O | 0.39 | 1.15 | 2.9 | 0.32 | 0.96 | 3 | 0.27 | 0.37
CC(=O)O[C@H]1C(=O)[C@@]2(C)[C@H]([C@H](OC(=O)c3cccc(F)c3)[C@]3(O)C[C@H](OC(=O)[C@H](O)[C@@H](NC(=O)OC(C)(C)C)C(F)F)C(C)=C1C3(C)C)[C@]1(OC(C)=O)CO[C@@H]1C[C@@H]2O | 0.52 | 10 | 19 | 0.44 | 5.33 | 13 | 0.2 | 0.35
CC(=O)O[C@@]12CO[C@@H]1C[C@H](O)[C@@]1(C)C(=O)[C@H](OC(=O)N(C)C)C3=C(C)[C@@H](OC(=O)[C@H](O)[C@@H](NC(=O)OC(C)(C)C)C(F)(F)F)C[C@@](O)([C@@H](OC(=O)c4cccc(F)c4)[C@H]21)C3(C)C | 0.32 | 5.57 | 17 | 0.32 | 2.64 | 8.3 | 0.5 | 0.76
COC(=O)O[C@H]1C(=O)[C@@]2(C)[C@H]([C@H](OC(=O)c3cccc(Cl)c3)[C@]3(O)C[C@H](OC(=O)[C@H](O)[C@@H](NC(=O)OC(C)(C)C)C(F)(F)F)C(C)=C1C3(C)C)[C@]1(OC(C)=O)CO[C@@H]1C[C@@H]2O | 0.29 | 5.08 | 18 | 0.65 | 4.72 | 7.3 | 0.43 | 0.68
CCC(=O)O[C@H]1C(=O)[C@@]2(C)[C@H]([C@H](OC(=O)c3cccc(F)c3)[C@]3(O)C[C@H](OC(=O)[C@H](O)[C@@H](NC(=O)OC(C)(C)C)C(F)F)C(C)=C1C3(C)C)[C@]1(OC(C)=O)CO[C@@H]1C[C@@H]2O | 0.88 | 4.63 | 3.5 | 0.53 | 7.24 | 14 | 0.41 | 0.86
CC(=O)O[C@H]1C(=O)[C@@]2(C)[C@H]([C@H](OC(=O)c3cccc(F)c3)[C@]3(O)C[C@H](OC(=O)[C@H](O)[C@@H](NC(=O)OC(C)(C)C)C(F)(F)F)C(C)=C1C3(C)C)[C@]1(OC(C)=O)CO[C@@H]1C[C@@H]2O | 0.38 | 5.93 | 16 | 0.45 | 5.58 | 13 | 0.49 | 1.11
CC(=O)O[C@H]1C(=O)[C@@]2(C)[C@H]([C@H](OC(=O)c3cccc(Cl)c3)[C@]3(O)C[C@H](OC(=O)[C@H](O)[C@@H](NC(=O)OC(C)(C)C)C(F)F)C(C)=C1C3(C)C)[C@]1(OC(C)=O)CO[C@@H]1C[C@@H]2O | 0.31 | 5.8 | 19 | 0.4 | 6.48 | 16 | 0.49 | 1.94
CCC(=O)O[C@H]1C(=O)[C@@]2(C)[C@H]([C@H](OC(=O)c3cccc(Cl)c3)[C@]3(O)C[C@H](OC(=O)[C@H](O)[C@@H](NC(=O)OC(C)(C)C)C(F)F)C(C)=C1C3(C)C)[C@]1(OC(C)=O)CO[C@@H]1C[C@@H]2O | 0.52 | 4.71 | 9.1 | 0.44 | 5.2 | 12 | 0.3 | 0.43
CC(=O)O[C@H]1C(=O)[C@@]2(C)[C@H]([C@H](OC(=O)c3cccc(N=[N+]=[N-])c3)[C@]3(O)C[C@H](OC(=O)[C@H](O)[C@@H](NC(=O)OC(C)(C)C)C(F)F)C(C)=C1C3(C)C)[C@]1(OC(C)=O)CO[C@@H]1C[C@@H]2O | 0.22 | 1.57 | 7.1 | 0.32 | 1.68 | 5.3 | 0.48 | 0.57
CC(=O)O[C@@]12CO[C@@H]1C[C@H](O)[C@@]1(C)C(=O)[C@H](OC(=O)N(C)C)C3=C(C)[C@@H](OC(=O)[C@H](O)[C@@H](NC(=O)OC(C)(C)C)C(F)(F)F)C[C@@](O)([C@@H](OC(=O)c4cccc(N=[N+]=[N-])c4)[C@H]21)C3(C)C | 1.27 | 3.52 | 2.8 | 0.47 | 2.61 | 5.6 | 0.3 | 0.5
COc1cccc(C(=O)O[C@H]2[C@@H]3[C@]4(OC(C)=O)CO[C@@H]4C[C@H](O)[C@@]3(C)C(=O)[C@H](OC(C)=O)C3=C(C)[C@@H](OC(=O)[C@H](O)[C@@H](NC(=O)OC(C)(C)C)C(F)(F)F)C[C@]2(O)C3(C)C)c1 | 0.33 | 3.99 | 12 | 0.32 | 8.8 | 28 | 0.38 | 0.69
COc1cccc(C(=O)O[C@H]2[C@@H]3[C@]4(OC(C)=O)CO[C@@H]4C[C@H](O)[C@@]3(C)C(=O)[C@H](OC(=O)N(C)C)C3=C(C)[C@@H](OC(=O)[C@H](O)[C@@H](NC(=O)OC(C)(C)C)C(F)F)C[C@]2(O)C3(C)C)c1 | 0.69 | 7.06 | 10 | 0.45 | 4.51 | 10 | 0.4 | 0.43
CCC(=O)O[C@H]1C(=O)[C@@]2(C)[C@H]([C@H](OC(=O)c3cccc(F)c3)[C@]3(O)C[C@H](OC(=O)[C@H](O)[C@@H](NC(=O)OC(C)(C)C)C(F)(F)F)C(C)=C1C3(C)C)[C@]1(OC(C)=O)CO[C@@H]1C[C@@H]2O | 0.82 | 4.27 | 5.2 | 0.68 | 3.78 | 5.6 | 0.59 | 1.15
CC(=O)O[C@@]12CO[C@@H]1C[C@H](O)[C@@]1(C)C(=O)[C@H](OC(=O)N(C)C)C3=C(C)[C@@H](OC(=O)[C@H](O)[C@@H](NC(=O)OC(C)(C)C)C(F)F)C[C@@](O)([C@@H](OC(=O)c4cccc(N=[N+]=[N-])c4)[C@H]21)C3(C)C | 0.29 | 1.69 | 5.8 | 0.37 | 1.44 | 3.9 | 0.52 | 0.4
CCC(=O)O[C@H]1C(=O)[C@@]2(C)[C@H]([C@H](OC(=O)c3cccc(OC)c3)[C@]3(O)C[C@H](OC(=O)[C@H](O)[C@@H](NC(=O)OC(C)(C)C)C(F)F)C(C)=C1C3(C)C)[C@]1(OC(C)=O)CO[C@@H]1C[C@@H]2O | 0.69 | – | – | 1.14 | 4.05 | – | 0.4 | 0.59
